Assay results as given in PubChem BioAssay (NCI).
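In this assay, cells in 96-well plates receive the compound at five concentrations for 48 hours. Endpoints are linearly interpolated between the surrounding concentrations. Definition used: TGI = concentration required for complete inhibition of growth.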

Assays:
Experiment in all cases: NCI tumour cell line growth inhibition, 48 h
[1] = tested on: ACHN renal
[2] = tested on: HCT-15 colon
[3] = tested on: KM12 colon
[4] = tested on: MCF7 breast
[5] = tested on: MDA-N
[6] = tested on: NCI-H23 lung
[7] = tested on: OVCAR-8 ovarian
[8] = tested on: RXF 393 renal
[9] = tested on: SNB-19 CNS
[10] = tested on: RPMI-8226 leukemia

O=c1[nH]nnc2c1sc1ncccc12
TGI [1]: > 100 µM
TGI [2]: > 100 µM
TGI [3]: > 100 µM
TGI [4]: > 100 µM
TGI [5]: > 100 µM
TGI [6]: > 100 µM
TGI [7]: > 100 µM
TGI [8]: > 100 µM
TGI [9]: > 100 µM

O=C1COc2cccnc2N1CCCCO
TGI [1]: > 100 µM
TGI [2]: > 100 µM
TGI [3]: > 100 µM
TGI [4]: > 100 µM
TGI [5]: > 100 µM
TGI [10]: > 100 µM
TGI [8]: > 100 µM
TGI [9]: > 100 µM

C=CCn1c(N)c(C#N)c(C#N)c1-c1ccccc1
TGI [1]: > 100 µM
TGI [2]: > 100 µM
TGI [3]: > 100 µM
TGI [4]: > 100 µM
TGI [5]: > 100 µM
TGI [6]: > 100 µM
TGI [7]: > 100 µM
TGI [10]: > 100 µM
TGI [8]: > 100 µM
TGI [9]: > 100 µM

COc1cccc(C2c3cc4c(cc3OC(N3CCCCC3)C2C)OCO4)c1O (centres undefined)
TGI [1]: 56.5 µM
TGI [2]: 19.9 µM
TGI [3]: 23.1 µM
TGI [4]: 57.7 µM
TGI [5]: 7.71 µM
TGI [6]: > 71.6 µM
TGI [7]: > 36.5 µM
TGI [10]: 12.3 µM
TGI [8]: 18.7 µM
TGI [9]: > 100 µM

O=C1C=CC(=O)c2c1ccc1c3ccccc3n(CCCCCn3c4ccccc4c4ccc5c(c43)C(=O)C=CC5=O)c21
TGI [1]: 28.6 µM
TGI [2]: 36.2 µM
TGI [3]: > 100 µM
TGI [4]: 43.3 µM
TGI [5]: 40.1 µM
TGI [6]: 32.8 µM
TGI [7]: 46.9 µM
TGI [10]: 18.8 µM
TGI [8]: 21.1 µM
TGI [9]: > 100 µM

Cc1ccc(C2SCC(=O)N2c2ccc(-n3c(-c4ccccc4)nc4ccccc4c3=O)cc2)cc1 (centres undefined)
TGI [1]: 86.4 µM
TGI [2]: 52 µM
TGI [3]: > 100 µM
TGI [4]: > 100 µM
TGI [5]: 80 µM
TGI [6]: > 100 µM
TGI [7]: > 100 µM
TGI [10]: 55.1 µM
TGI [8]: 91.3 µM
TGI [9]: > 100 µM

Cc1[nH]c(=O)nc2nc3ccc(Cl)cc3c(NCCNCCO)c12
TGI [1]: 27.4 µM
TGI [2]: 31.9 µM
TGI [3]: 23 µM
TGI [4]: 26.6 µM
TGI [5]: 25.4 µM
TGI [6]: 21.5 µM
TGI [7]: 21.6 µM
TGI [10]: > 100 µM
TGI [8]: 28.5 µM
TGI [9]: 21.4 µM

CO/N=C(\C(=O)OC(=NC1CCCCC1)NC1CCCCC1)c1csc(NC(c2ccccc2)(c2ccccc2)c2ccccc2)n1
TGI [1]: > 10 µM
TGI [2]: > 10 µM
TGI [3]: > 10 µM
TGI [4]: > 10 µM
TGI [5]: > 10 µM
TGI [6]: > 10 µM
TGI [7]: > 10 µM
TGI [10]: > 10 µM
TGI [8]: > 10 µM
TGI [9]: > 10 µM

NC(N)=NS(=O)(=O)c1ccc(NNc2c3ccccc3nc3c(C(=O)Nc4ccc(S(=O)(=O)Nc5ncccn5)cc4)cccc23)cc1
TGI [1]: > 100 µM
TGI [2]: > 100 µM
TGI [3]: > 100 µM
TGI [4]: > 100 µM
TGI [5]: > 100 µM
TGI [6]: > 100 µM
TGI [7]: > 100 µM
TGI [10]: > 100 µM
TGI [8]: > 100 µM
TGI [9]: > 100 µM

COc1cc(OC)cc(Oc2nc3ccccc3nc2C(F)(F)F)c1
TGI [1]: > 100 µM
TGI [2]: > 100 µM
TGI [3]: > 100 µM
TGI [4]: > 100 µM
TGI [5]: > 100 µM
TGI [6]: > 100 µM
TGI [7]: > 100 µM
TGI [10]: > 100 µM
TGI [8]: > 100 µM
TGI [9]: > 100 µM

Cc1c(C)c2c(c(N)c1C#N)C(=O)N(NC(=O)c1ccccc1)C2=O
TGI [1]: > 100 µM
TGI [2]: > 100 µM
TGI [3]: > 100 µM
TGI [4]: > 100 µM
TGI [5]: > 100 µM
TGI [7]: > 100 µM
TGI [10]: > 100 µM
TGI [8]: > 100 µM
TGI [9]: > 100 µM

CC(=O)c1ccccc1NP(=O)(c1ccccc1)c1ccccc1
TGI [1]: > 100 µM
TGI [2]: > 100 µM
TGI [3]: > 100 µM
TGI [4]: > 100 µM
TGI [5]: > 100 µM
TGI [6]: > 100 µM
TGI [7]: > 100 µM
TGI [10]: 62.8 µM
TGI [8]: > 100 µM
TGI [9]: > 100 µM

O=C(/C=C/c1ccccc1)Oc1cccc(O)c1
TGI [1]: > 100 µM
TGI [2]: 34.7 µM
TGI [3]: 46.3 µM
TGI [4]: > 100 µM
TGI [5]: > 100 µM
TGI [6]: > 100 µM
TGI [7]: > 100 µM
TGI [10]: > 100 µM
TGI [8]: > 100 µM
TGI [9]: 76.1 µM

Cc1ccc(S(=O)(=O)c2[nH]cc(/C(=C\C3CCCCC3)[N+](=O)[O-])c2C2CCCCC2)cc1
TGI [1]: 0.619 µM
TGI [2]: 0.46 µM
TGI [3]: 4.1 µM
TGI [4]: > 100 µM
TGI [5]: 0.968 µM
TGI [6]: 3.1 µM
TGI [7]: 2.78 µM
TGI [10]: 0.715 µM
TGI [8]: 0.407 µM
TGI [9]: 3.98 µM

CC1CC(OP(=O)(OCc2ccccc2)OCc2ccccc2)[C@@H](OCc2ccccc2)C(OCc2ccccc2)C1OCc1ccccc1 (some centres undefined)
TGI [1]: > 100 µM
TGI [2]: > 100 µM
TGI [4]: > 100 µM
TGI [5]: > 100 µM
TGI [6]: > 100 µM
TGI [7]: > 100 µM
TGI [10]: > 100 µM
TGI [8]: 9.8 µM
TGI [9]: > 100 µM

Nc1c(C(=O)O)nnc2ccc(Cl)cc12
TGI [1]: > 100 µM
TGI [2]: > 100 µM
TGI [3]: > 100 µM
TGI [4]: > 100 µM
TGI [5]: > 100 µM
TGI [6]: > 100 µM
TGI [7]: > 100 µM
TGI [10]: > 100 µM
TGI [9]: > 100 µM

CC(=O)Nc1sc(Br)cc1S(=O)(=O)c1ccc(Cl)cc1
TGI [1]: > 100 µM
TGI [3]: 45.4 µM
TGI [4]: 47.3 µM
TGI [5]: > 100 µM
TGI [6]: > 100 µM
TGI [7]: 68.7 µM
TGI [10]: > 100 µM
TGI [8]: 48.4 µM
TGI [9]: > 100 µM

CC1=NN(c2nc(N)nc(/C(C#N)=C\c3ccc([N+](=O)[O-])s3)n2)C(C)(C)C1
TGI [1]: 0.719 µM
TGI [2]: 0.325 µM
TGI [3]: 1.85 µM
TGI [4]: 0.375 µM
TGI [5]: 2.6 µM
TGI [6]: 3.32 µM
TGI [7]: 0.21 µM
TGI [10]: 0.0872 µM
TGI [9]: 5.97 µM

CCOC1(OCC)C2C=CC1C(COS(=O)(=O)c1ccc(C)cc1)C2COS(=O)(=O)c1ccc(C)cc1 (centres undefined)
TGI [1]: > 100 µM
TGI [2]: > 100 µM
TGI [3]: > 100 µM
TGI [4]: > 100 µM
TGI [5]: > 100 µM
TGI [6]: > 100 µM
TGI [7]: > 100 µM
TGI [8]: > 100 µM
TGI [9]: > 100 µM

O=C1/C(=C/c2ccc(Br)s2)NC(=S)N1c1ccccc1
TGI [1]: > 100 µM
TGI [2]: > 100 µM
TGI [3]: > 100 µM
TGI [4]: > 100 µM
TGI [5]: > 100 µM
TGI [6]: > 100 µM
TGI [10]: 85.1 µM
TGI [8]: > 100 µM
TGI [9]: > 100 µM

COC(=O)/C=C(\C(=O)OC)C1C(=O)Oc2c(C)c(=O)c3ccccc3n21 (centres undefined)
TGI [2]: > 100 µM
TGI [3]: > 100 µM
TGI [4]: > 100 µM
TGI [5]: > 100 µM
TGI [6]: > 100 µM
TGI [7]: > 100 µM
TGI [10]: > 100 µM
TGI [8]: > 100 µM
TGI [9]: > 100 µM
